Data published in patent US11365187B2, “Pesticidally active pyrazole derivatives” (SYNGENTA PARTICIPATIONS AG, priority 2017, dated 2022).

Columns and labels:
Format in all cases: in vivo
[1] = system: Euschistus heros (Neotropical Brown Stink Bug); assay: Euschistus heros feeding/contact activity on soybean leaves; settings: 120 h, application rate 200 ppm, N2 nymphs, assessed 5 days after infestation, read-out: mortality
Experimental: Euschistus heros (Neotropical Brown Stink Bug): Feeding/contact activity
Soybean leaves on agar in 24-well microtiter plates were sprayed with aqueous test solutions prepared from 10′000 ppm DMSO stock solutions. After drying the leaves were infested with N2 nymphs. The samples were assessed for mortality 5 days after infestation.

[2] = system: Thrips tabaci (Onion thrips); assay: Thrips tabaci feeding/contact activity on sunflower leaf discs; settings: foliar, 144 h, application rate 200 ppm, thrips population of mixed ages, assessed 6 days after infestation, read-out: mortality
Experimental: Thrips tabaci (Onion thrips): Feeding/Contact activity
(§1) Sunflower leaf discs were placed on agar in 24-well microtiter plates and sprayed with aqueous test solutions prepared from 10′000 ppm DMSO stock solutions. After drying the leaf discs were infested with a thrips population of mixed ages. The samples were assessed for mortality 6 days after infestation.

[3] = system: Diabrotica balteata (Corn root worm); assay: Diabrotica balteata (Corn root worm) mortality on sprayed maize sprouts; settings: 96 h, application rate 200 ppm, L2 larvae, assessed 4 days after infestation, read-out: mortality
Experimental: Diabrotica balteata (Corn root worm):
Maize sprouts placed onto an agar layer in 24-well microtiter plates were treated with aqueous test solutions prepared from 10′000 ppm DMSO stock solutions by spraying. After drying, the plates were infested with L2 larvae (6 to 10 per well). The samples were assessed for mortality 4 days after infestation.

[4] = system: Myzus persicae (Green peach aphid); assay: Myzus persicae feeding/contact activity on sunflower leaf discs; settings: foliar, 144 h, application rate 200 ppm, aphid population of mixed ages, assessed 6 days after infestation, read-out: mortality
Experimental: Myzus persicae (Green peach aphid): Feeding/Contact activity
Sunflower leaf discs were placed onto agar in a 24-well microtiter plate and sprayed with aqueous test solutions prepared from 10′000 ppm DMSO stock solutions. After drying, the leaf discs were infested with an aphid population of mixed ages. The samples were assessed for mortality 6 days after infestation.

[5] = system: Plutella xylostella (Diamond back moth); assay: Plutella xylostella feeding/contact activity on artificial diet; settings: 120 h, application rate 200 ppm, L2 larvae, assessed 5 days after infestation, read-out: mortality
Experimental: Plutella xylostella (Diamond back moth): Feeding/contact activity
24-well microtiter plates with artificial diet were treated with aqueous test solutions prepared from 10′000 ppm DMSO stock solutions by pipetting. After drying, the plates were infested with L2 larvae (10 to 15 per well). The samples were assessed for mortality 5 days after infestation.

[6] = system: Tetranychus urticae (Two-spotted spider mite); assay: Tetranychus urticae feeding/contact activity on bean leaf discs; settings: foliar, 192 h, application rate 200 ppm, mite population of mixed ages, assessed 8 days after infestation, read-out: mortality on mixed population (mobile stages)
Experimental: Tetranychus urticae (Two-spotted spider mite): Feeding/contact activity
as §1, with “Bean” for “Sunflower”, “discs” for “discs were placed”, “were” for “and”, “mite” for “thrips”, “on mixed population (mobile stages) 8” for “6”

[7] = system: Spodoptera littoralis (Egyptian cotton leaf worm); assay: Spodoptera littoralis feeding/contact activity on cotton leaf discs; settings: foliar, 72 h, application rate 200 ppm, L1 larvae, assessed 3 days after infestation, read-out: mortality

Measured: mortality at 200 ppm

Cn1nc(C(F)(C(F)(F)F)C(F)(F)F)c(OC(F)F)c1-n1cc(-c2ccc(Cl)c(C(=O)NC3(C#N)CC3)c2)cn1 [Example 1, 2-Chloro-N-(1-cyanocyclopropyl)-5-[1-[4-(difluoromethoxy)-2-methyl-5-[1,2,2,2-tetrafluoro-1-(trifluoromethyl)ethyl]pyrazol-3-yl]pyrazol-4-yl]benzamide]
≥ 80%: all assays above

CCN(C(=O)c1cc(-c2cnn(-c3c(OC(F)F)c(C(F)(C(F)(F)F)C(F)(F)F)nn3C)c2)ccc1Cl)C1(C#N)CC1 [Example 3, 2-chloro-N-(1-cyanocyclopropyl)-5-[1-[4-(difluoromethoxy)-2-methyl-5-[1,2,2,2-tetrafluoro-1-(trifluoromethyl)ethyl]pyrazol-3-yl]pyrazol-4-yl]-N-ethyl-benzamide]
≥ 80%: all assays above
